Calls of active or inactive are those of the source. No rule for the calls is given here.
System: CCRIS mutagenicity, Ames/micronucleus/aberration tests
Test: CCRIS mutagenicity studies
[1] = Test System: AMES SALMONELLA TYPHIMURIUM, Strain/Indicator: TA100, Metabolic Activation: NONE, Method: STANDARD PLATE
[2] = Test System: AMES SALMONELLA TYPHIMURIUM, Strain/Indicator: TA98, Metabolic Activation: NONE, Method: PREINCUBATION

CCS(=O)(=O)CCn1c([N+](=O)[O-])cnc1C
mutagenic call (Test System: AMES SALMONELLA TYPHIMURIUM, Strain/Indicator: TA98, Metabolic Activation: RAT, LIVER, S-9, AROCLOR 1254, Method: STANDARD PLATE): inactive; negative
mutagenic call (Test System: AMES SALMONELLA TYPHIMURIUM, Strain/Indicator: TA100(1,8-DNP6), Metabolic Activation: NONE, Method: PREINCUBATION (AEROBIC)): active; positive
mutagenic call (Test System: AMES SALMONELLA TYPHIMURIUM, Strain/Indicator: TA100(NR), Metabolic Activation: NONE, Method: PREINCUBATION (AEROBIC)): active; positive
mutagenic call (Test System: AMES SALMONELLA TYPHIMURIUM, Strain/Indicator: TA100(NR), Metabolic Activation: NONE, Method: PREINCUBATION (ANAEROBIC)): active; positive
mutagenic call (Test System: AMES SALMONELLA TYPHIMURIUM, Strain/Indicator: TA100(NR), Metabolic Activation: RAT, LIVER, S-9, AROCLOR 1254, Method: PREINCUBATION (AEROBIC)): active; positive
mutagenic call (Test System: AMES SALMONELLA TYPHIMURIUM, Strain/Indicator: TA100(NR), Metabolic Activation: RAT, LIVER, S-9, AROCLOR 1254, Method: PREINCUBATION (ANAEROBIC)): active; positive
mutagenic call (Test System: AMES SALMONELLA TYPHIMURIUM, Strain/Indicator: TA100(NR), Metabolic Activation: RAT, LIVER, S-9, AROCLOR 1254, Method: STANDARD PLATE): active; positive
mutagenic call (Test System: AMES SALMONELLA TYPHIMURIUM, Strain/Indicator: TA100, Metabolic Activation: NONE, Method: PREINCUBATION (AEROBIC)): active; positive
mutagenic call (Test System: AMES SALMONELLA TYPHIMURIUM, Strain/Indicator: TA100, Metabolic Activation: NONE, Method: PREINCUBATION (ANAEROBIC)): active; positive
mutagenic call [1]: active; positive
mutagenic call (Test System: AMES SALMONELLA TYPHIMURIUM, Strain/Indicator: TA100, Metabolic Activation: RAT, LIVER, S-9, AROCLOR 1254, Method: PREINCUBATION (AEROBIC)): active; positive
mutagenic call (Test System: AMES SALMONELLA TYPHIMURIUM, Strain/Indicator: TA100, Metabolic Activation: RAT, LIVER, S-9, AROCLOR 1254, Method: PREINCUBATION (ANAEROBIC)): active; positive
mutagenic call (Test System: AMES SALMONELLA TYPHIMURIUM, Strain/Indicator: TA100, Metabolic Activation: RAT, LIVER, S-9, AROCLOR 1254, Method: STANDARD PLATE): active; positive
mutagenic call (Test System: AMES SALMONELLA TYPHIMURIUM, Strain/Indicator: UTH8414, Metabolic Activation: NONE, Method: STANDARD PLATE): active; positive
mutagenic call (Test System: AMES SALMONELLA TYPHIMURIUM, Strain/Indicator: YG1029, Metabolic Activation: NONE, Method: PREINCUBATION (AEROBIC)): active; positive

Nc1c([N+](=O)[O-])cccc1[N+](=O)[O-]
mutagenic call [2]: active; positive
mutagenic call (Test System: AMES SALMONELLA TYPHIMURIUM, Strain/Indicator: TA98, Metabolic Activation: RAT, LIVER, S-9, KANECHLOR 500, Method: PREINCUBATION): active; positive
mutagenic call (Test System: AMES SALMONELLA TYPHIMURIUM, Strain/Indicator: TA100, Metabolic Activation: NONE, Method: PREINCUBATION): active; positive
mutagenic call (Test System: AMES SALMONELLA TYPHIMURIUM, Strain/Indicator: TA100, Metabolic Activation: RAT, LIVER, S-9, KANECHLOR 500, Method: PREINCUBATION): active; positive

CCN(O)CC
mutagenic call (Test System: UDS HUMAN LYMPHOCYTES, Strain/Indicator: THY INCORP (NON-S-PHASE), Metabolic Activation: NONE, Method: LIQUID SCINTILLATION COUNTING): active; positive

Cc1ccc2cc3c(c4c2c1CC4)C1OC1c1ccccc1-3 (stereo not drawn)
mutagenic call (Test System: AMES SALMONELLA TYPHIMURIUM, Strain/Indicator: TA98, Metabolic Activation: NONE, Method: STANDARD PLATE): active; positive
mutagenic call [1]: active; positive
mutagenic call (Test System: CHINESE HAMSTER V-79, Strain/Indicator: V-79/8-AZAGUANINE, Metabolic Activation: NONE, Method: STANDARD PLATE): active; positive

O.O.O.O.O.[Cd+2].[Cd+2].[Cl-].[Cl-].[Cl-].[Cl-]
mutagenic call (End Point: In vivo micronucleus, Test System: Bone marrow polychromatic erythrocytes, Species: Mouse, Strain/Sex: C57BL/6J/Han/Male, Route: Oral): inactive; negative
mutagenic call [2]: inactive; negative
mutagenic call (Test System: AMES SALMONELLA TYPHIMURIUM, Strain/Indicator: TA98, Metabolic Activation: RAT LIVER S-9, PHENOBARBITAL AND BETA-NAPHTHOFLAVONE, Method: PREINCUBATION): inactive; negative
mutagenic call (Test System: AMES SALMONELLA TYPHIMURIUM, Strain/Indicator: TA100, Metabolic Activation: RAT LIVER S-9, PHENOBARBITAL AND BETA-NAPHTHOFLAVONE, Method: PREINCUBATION): inactive; negative
mutagenic call (Test System: AMES SALMONELLA TYPHIMURIUM, Strain/Indicator: TA1535, Metabolic Activation: RAT LIVER S-9, PHENOBARBITAL AND BETA-NAPHTHOFLAVONE, Method: PREINCUBATION): inactive; negative
mutagenic call (Test System: AMES SALMONELLA TYPHIMURIUM, Strain/Indicator: TA1537, Metabolic Activation: NONE, Method: PREINCUBATION): inactive; negative
mutagenic call (Test System: AMES SALMONELLA TYPHIMURIUM, Strain/Indicator: TA1537, Metabolic Activation: RAT LIVER S-9, PHENOBARBITAL AND BETA-NAPHTHOFLAVONE, Method: PREINCUBATION): inactive; negative
mutagenic call (Test System: AMES SALMONELLA TYPHIMURIUM, Strain/Indicator: TA1538, Metabolic Activation: NONE, Method: PREINCUBATION): inactive; negative
mutagenic call (Test System: AMES SALMONELLA TYPHIMURIUM, Strain/Indicator: TA1538, Metabolic Activation: RAT LIVER S-9, PHENOBARBITAL AND BETA-NAPHTHOFLAVONE, Method: PREINCUBATION): inactive; negative
mutagenic call (Test System: E.COLI, Strain/Indicator: WP2UVRA, Metabolic Activation: NONE, Method: PREINCUBATION): inactive; negative
mutagenic call (Test System: E.COLI, Strain/Indicator: WP2UVRA, Metabolic Activation: RAT LIVER S-9, PHENOBARBITAL AND BETA-NAPHTHOFLAVONE, Method: PREINCUBATION): inactive; negative

Brc1ccc(C2CO2)cc1 (stereo not drawn)
mutagenic call (Test System: E. COLI, Strain/Indicator: WP2 UVRA, Metabolic Activation: NONE, Method: STANDARD PLATE): active; positive

Fc1ccc2ncccc2c1
mutagenic call (End Point: In vitro chromosomal aberrations, Test System: Chinese hamster lung fibroblast cells (CHL/IU), Metabolic Activation: Rat, liver, S-9): active; positive, toxicity at 0.1 mg/ml. (information derived from a figure)
mutagenic call (End Point: In vitro micronucleus, Test System: Chinese hamster lung fibroblast cells (CHL/IU), Metabolic Activation: Rat, liver, S-9): active; positive, cytotoxic at 0.2 mg/ml (information derived from a figure)
mutagenic call (Test System: AMES SALMONELLA TYPHIMURIUM, Strain/Indicator: TA100, Metabolic Activation: RAT LIVER S-9, PHENOBARBITAL AND 5,6-BENZOFLAVONE, Method: PREINCUBATION): active; positive
mutagenic call (Test System: AMES SALMONELLA TYPHIMURIUM, Strain/Indicator: TA100, Metabolic Activation: RAT, LIVER, S-9, AROCLOR 1254, Method: PREINCUBATION): active; positive
mutagenic call (Test System: AMES SALMONELLA TYPHIMURIUM, Strain/Indicator: TA100, Metabolic Activation: RAT, LIVER, S-9, PHENOBARBITAL AND 5,6-BENZOFLAVONE, Method: PREINCUBATION): active; positive
mutagenic call (Test System: AMES SALMONELLA TYPHIMURIUM, Strain/Indicator: TA100, Metabolic Activation: RAT, LIVER, S-9, PHENOBARBITAL AND 5,6-NAPHTHOFLAVONE, Method: PREINCUBATION): active; positive
mutagenic call (Test System: UDS RODENT HEPATOCYTES, Strain/Indicator: THY INCORP (NON-S-PHASE), Metabolic Activation: NONE, Method: AUTORADIOGRAPHY): active; positive

CCCN(COC(C)=O)N=O
mutagenic call (Test System: UDS RAT UROTHELIAL CELLS, Strain/Indicator: THY INCORP, Metabolic Activation: NONE): active; positive

From PubChem BioAssay AID1259407 (Chemical Carcinogenesis Research Information System (CCRIS), 2018)
